≈ marks a conversion by molar mass, not a printed value.
Tests used:
Type in all cases: functional
[1] = test system: Streptococcus pneumoniae; assay: Antibacterial activity against Mef(A) efflux pump containing Streptococcus pneumoniae OC4438
[2] = test system: Streptococcus pneumoniae; assay: Antibacterial activity against Streptococcus pneumoniae OC9132
[3] = test system: Staphylococcus aureus; assay: Antibacterial activity against Staphylococcus aureus OC4172
[4] = test system: Haemophilus influenzae; assay: Antibacterial activity against Haemophilus influenzae OC4882
[5] = test system: Streptococcus pneumoniae; assay: Antibacterial activity against erm(B) ribosomal methylase gene containing Streptococcus pneumoniae OC4051

SMILES	MIC [1] [µg/mL]	MIC [2] [µg/mL]	MIC [3] [µg/mL]	MIC [4] [µg/mL]	MIC [5] [µg/mL]
CC[C@H]1OC(=O)[C@H](C)[C@@H](OC(=O)c2cccnc2)[C@H](C)[C@@H](O[C@@H]2O[C@H](C)C[C@H](N(C)C)[C@H]2O)[C@](C)(OC(=O)NC/C=C/c2ccc(-c3ncccn3)cc2)C[C@@H](C)C(=O)[C@H](C)[C@H]2NC(=O)O[C@@]21C	0.25 (≈ 0.265 µM)	0.06 (≈ 0.0636 µM)	0.5 (≈ 0.53 µM)	16 (≈ 17 µM)	4 (≈ 4.24 µM)
CC[C@H]1OC(=O)[C@H](C)[C@@H](OC(=O)Cc2cccnc2)[C@H](C)[C@@H](O[C@@H]2O[C@H](C)C[C@H](N(C)C)[C@H]2O)[C@](C)(OC(=O)NC/C=C/C=C/c2cccnc2)C[C@@H](C)C(=O)[C@H](C)[C@H]2NC(=O)O[C@@]21C	0.12 (≈ 0.132 µM)	0.03 (≈ 0.0331 µM)	0.5 (≈ 0.552 µM)	2 (≈ 2.21 µM)	0.12 (≈ 0.132 µM)
CC[C@H]1OC(=O)[C@H](C)[C@@H](OC(=O)N(C)Cc2cccnc2)[C@H](C)[C@@H](O[C@@H]2O[C@H](C)C[C@H](N(C)C)[C@H]2O)[C@](C)(OC(=O)NC/C=C/c2ccc(-c3ncccn3)cc2)C[C@@H](C)C(=O)[C@H](C)[C@H]2NC(=O)O[C@@]21C	0.06 (≈ 0.0608 µM)	0.03 (≈ 0.0304 µM)	0.25 (≈ 0.254 µM)	4 (≈ 4.06 µM)	0.5 (≈ 0.507 µM)
CC[C@H]1OC(=O)[C@H](C)C(=O)[C@H](C)[C@@H](O[C@@H]2O[C@H](C)C[C@H](N(C)C)[C@H]2O)[C@](C)(OC(=O)NC/C=C/c2ccc(-c3ncccn3)cc2)C[C@@H](C)C(=O)[C@H](C)[C@H]2NC(=O)O[C@@]21C	0.25 (≈ 0.299 µM)	0.03 (≈ 0.0359 µM)	0.12 (≈ 0.144 µM)	4 (≈ 4.78 µM)	0.06 (≈ 0.0718 µM)
CC[C@H]1OC(=O)[C@H](C)[C@@H](OC(=O)N(CC)CC)[C@H](C)[C@@H](O[C@@H]2O[C@H](C)C[C@H](N(C)C)[C@H]2O)[C@](C)(OC(=O)NC/C=C/c2cnc3ccccc3c2)C[C@@H](C)C(=O)[C@H](C)[C@H]2NC(=O)O[C@@]21C	0.06 (≈ 0.0659 µM)	0.06 (≈ 0.0659 µM)	0.5 (≈ 0.549 µM)	4 (≈ 4.4 µM)	0.12 (≈ 0.132 µM)
CC[C@H]1OC(=O)[C@H](C)[C@@H](OC(=O)N(CC)Cc2cccnc2)[C@H](C)[C@@H](O[C@@H]2O[C@H](C)C[C@H](N(C)C)[C@H]2O)[C@](C)(OC(=O)NC/C=C/c2ccc(-c3ncccn3)cc2)C[C@@H](C)C(=O)[C@H](C)[C@H]2NC(=O)O[C@@]21C	0.12 (≈ 0.12 µM)	0.06 (≈ 0.06 µM)	0.5 (≈ 0.5 µM)	16 (≈ 16 µM)	0.25 (≈ 0.25 µM)
CC[C@H]1OC(=O)[C@H](C)[C@@H](OC(=O)Cc2cccnc2)[C@H](C)[C@@H](O[C@@H]2O[C@H](C)C[C@H](N(C)C)[C@H]2O)[C@](C)(OC(=O)NC/C=C/c2ccc(-c3ncccn3)cc2)C[C@@H](C)C(=O)[C@H](C)[C@H]2NC(=O)O[C@@]21C	0.06 (≈ 0.0627 µM)	0.03 (≈ 0.0313 µM)	0.12 (≈ 0.125 µM)	4 (≈ 4.18 µM)	0.12 (≈ 0.125 µM)
CC[C@H]1OC(=O)[C@H](C)[C@@H](OC(=O)N(C)c2ccncc2)[C@H](C)[C@@H](O[C@@H]2O[C@H](C)C[C@H](N(C)C)[C@H]2O)[C@](C)(OC(=O)NC/C=C/c2ccc(-c3ncccn3)cc2)C[C@@H](C)C(=O)[C@H](C)[C@H]2NC(=O)O[C@@]21C	0.25 (≈ 0.257 µM)	0.06 (≈ 0.0617 µM)	1 (≈ 1.03 µM)	8 (≈ 8.23 µM)	0.25 (≈ 0.257 µM)
CC[C@H]1OC(=O)[C@H](C)[C@@H](OC(=O)N2CCCC2)[C@H](C)[C@@H](O[C@@H]2O[C@H](C)C[C@H](N(C)C)[C@H]2O)[C@](C)(OC(=O)NC/C=C/c2ccc(-c3ncccn3)cc2)C[C@@H](C)C(=O)[C@H](C)[C@H]2NC(=O)O[C@@]21C	0.12 (≈ 0.128 µM)	0.06 (≈ 0.0642 µM)	0.5 (≈ 0.535 µM)	16 (≈ 17.1 µM)	0.25 (≈ 0.267 µM)
CC[C@H]1OC(=O)[C@H](C)[C@@H](OC(=O)Cc2ccncc2)[C@H](C)[C@@H](O[C@@H]2O[C@H](C)C[C@H](N(C)C)[C@H]2O)[C@](C)(OC(=O)NC/C=C/c2ccc(-c3ncccn3)cc2)C[C@@H](C)C(=O)[C@H](C)[C@H]2NC(=O)O[C@@]21C	0.12 (≈ 0.125 µM)	0.03 (≈ 0.0313 µM)	0.25 (≈ 0.261 µM)	4 (≈ 4.18 µM)	0.25 (≈ 0.261 µM)
CC[C@H]1OC(=O)[C@H](C)[C@@H](OC(=O)Nc2ccc(F)cc2)[C@H](C)[C@@H](O[C@@H]2O[C@H](C)C[C@H](N(C)C)[C@H]2O)[C@](C)(OC(=O)NC/C=C/c2ccc(-c3ncccn3)cc2)C[C@@H](C)C(=O)[C@H](C)[C@H]2NC(=O)O[C@@]21C	0.25 (≈ 0.256 µM)	0.12 (≈ 0.123 µM)	1 (≈ 1.03 µM)	16 (≈ 16.4 µM)	2 (≈ 2.05 µM)
CC[C@H]1OC(=O)[C@H](C)[C@@H](OC(=O)N(CC)CC)[C@H](C)[C@@H](O[C@@H]2O[C@H](C)C[C@H](N(C)C)[C@H]2O)[C@](C)(OC(=O)NC/C=C/c2ccc(-c3ncccn3)cc2)C[C@@H](C)C(=O)[C@H](C)[C@H]2NC(=O)O[C@@]21C	0.06 (≈ 0.064 µM)	0.06 (≈ 0.064 µM)	0.5 (≈ 0.534 µM)	8 (≈ 8.54 µM)	0.12 (≈ 0.128 µM)
CC[C@H]1OC(=O)[C@H](C)[C@@H](OC(=O)N(C)C)[C@H](C)[C@@H](O[C@@H]2O[C@H](C)C[C@H](N(C)C)[C@H]2O)[C@](C)(OC(=O)NC/C=C/c2ccc(-c3ncccn3)cc2)C[C@@H](C)C(=O)[C@H](C)[C@H]2NC(=O)O[C@@]21C	0.06 (≈ 0.066 µM)	0.03 (≈ 0.033 µM)	0.25 (≈ 0.275 µM)	8 (≈ 8.8 µM)	0.25 (≈ 0.275 µM)
CC[C@H]1OC(=O)[C@H](C)[C@@H](OC(=O)C(C)C)[C@H](C)[C@@H](O[C@@H]2O[C@H](C)C[C@H](N(C)C)[C@H]2O)[C@](C)(OC(=O)NC/C=C/C=C/c2cccnc2)C[C@@H](C)C(=O)[C@H](C)[C@H]2NC(=O)O[C@@]21C	0.12 (≈ 0.14 µM)	0.06 (≈ 0.07 µM)	0.5 (≈ 0.583 µM)	4 (≈ 4.67 µM)	0.25 (≈ 0.292 µM)
CC[C@H]1OC(=O)[C@H](C)[C@@H](OC(=O)Cc2cccnc2)[C@H](C)[C@@H](O[C@@H]2O[C@H](C)C[C@H](N(C)C)[C@H]2O)[C@](C)(OC(=O)NC/C=C/c2cnc(C3CC3)nc2)C[C@@H](C)C(=O)[C@H](C)[C@H]2NC(=O)O[C@@]21C	0.25 (≈ 0.271 µM)	0.06 (≈ 0.0651 µM)	0.5 (≈ 0.543 µM)	2 (≈ 2.17 µM)	0.25 (≈ 0.271 µM)
CC[C@H]1OC(=O)[C@H](C)C(=O)[C@H](C)[C@@H](O[C@@H]2O[C@H](C)C[C@H](N(C)C)[C@H]2O)[C@](C)(OC)C[C@@H](C)C(=O)[C@H](C)[C@H]2N(CCCCn3cnc(-c4cccnc4)c3)C(=O)O[C@]12C [TELITHROMYCIN]	0.25 (≈ 0.308 µM)	0.03 (≈ 0.0369 µM)	0.25 (≈ 0.308 µM)	2 (≈ 2.46 µM)	0.06 (≈ 0.0739 µM)
CC[C@H]1OC(=O)[C@H](C)[C@@H](OC(=O)Nc2ccc(OC)cc2)[C@H](C)[C@@H](O[C@@H]2O[C@H](C)C[C@H](N(C)C)[C@H]2O)[C@](C)(OC(=O)NC/C=C/c2ccc(-c3ncccn3)cc2)C[C@@H](C)C(=O)[C@H](C)[C@H]2NC(=O)O[C@@]21C	0.25 (≈ 0.253 µM)	0.12 (≈ 0.122 µM)	1 (≈ 1.01 µM)	16 (≈ 16.2 µM)	4 (≈ 4.05 µM)
CC[C@H]1OC(=O)[C@H](C)[C@@H](OC(=O)CCc2cccnc2)[C@H](C)[C@@H](O[C@@H]2O[C@H](C)C[C@H](N(C)C)[C@H]2O)[C@](C)(OC(=O)NC/C=C/c2ccc(-c3ncccn3)cc2)C[C@@H](C)C(=O)[C@H](C)[C@H]2NC(=O)O[C@@]21C	0.06 (≈ 0.0618 µM)	0.03 (≈ 0.0309 µM)	0.25 (≈ 0.257 µM)	8 (≈ 8.24 µM)	2 (≈ 2.06 µM)
CC[C@H]1OC(=O)[C@H](C)[C@@H](OC(=O)NC2CCCCC2)[C@H](C)[C@@H](O[C@@H]2O[C@H](C)C[C@H](N(C)C)[C@H]2O)[C@](C)(OC(=O)NC/C=C/c2ccc(-c3ncccn3)cc2)C[C@@H](C)C(=O)[C@H](C)[C@H]2NC(=O)O[C@@]21C	0.25 (≈ 0.26 µM)	0.12 (≈ 0.125 µM)	1 (≈ 1.04 µM)	16 (≈ 16.6 µM)	4 (≈ 4.15 µM)
CC[C@H]1OC(=O)[C@H](C)[C@@H](OC(=O)C(C)C)[C@H](C)[C@@H](O[C@@H]2O[C@H](C)C[C@H](N(C)C)[C@H]2O)[C@](C)(OC(=O)NC/C=C/c2ccc(-c3cccnn3)cc2)C[C@@H](C)C(=O)[C@H](C)[C@H]2NC(=O)O[C@@]21C	0.06 (≈ 0.0661 µM)	0.06 (≈ 0.0661 µM)	0.5 (≈ 0.551 µM)	2 (≈ 2.2 µM)	0.12 (≈ 0.132 µM)
CC[C@H]1OC(=O)[C@H](C)[C@@H](OC(=O)C(C)C)[C@H](C)[C@@H](O[C@@H]2O[C@H](C)C[C@H](N(C)C)[C@H]2O)[C@](C)(OC(=O)NC/C=C/c2ccc(-c3ncccn3)cc2)C[C@@H](C)C(=O)[C@H](C)[C@H]2NC(=O)O[C@@]21C	0.12 (≈ 0.132 µM)	0.06 (≈ 0.0661 µM)	0.5 (≈ 0.551 µM)	8 (≈ 8.81 µM)	0.12 (≈ 0.132 µM)
CC[C@H]1OC(=O)[C@H](C)[C@@H](OC(C)=O)[C@H](C)[C@@H](O[C@@H]2O[C@H](C)C[C@H](N(C)C)[C@H]2O)[C@](C)(OC(=O)NC/C=C/c2ccc(-c3ncccn3)cc2)C[C@@H](C)C(=O)[C@H](C)[C@H]2NC(=O)O[C@@]21C	0.12 (≈ 0.136 µM)	0.03 (≈ 0.0341 µM)	1 (≈ 1.14 µM)	16 (≈ 18.2 µM)	0.5 (≈ 0.568 µM)
CC[C@H]1OC(=O)[C@H](C)[C@@H](OC(=O)Cc2cccnc2)[C@H](C)[C@@H](O[C@@H]2O[C@H](C)C[C@H](N(C)C)[C@H]2O)[C@](C)(OC(=O)NC/C=C/c2cnc3ccccc3c2)C[C@@H](C)C(=O)[C@H](C)[C@H]2NC(=O)O[C@@]21C	0.06 (≈ 0.0645 µM)	0.06 (≈ 0.0645 µM)	0.5 (≈ 0.538 µM)	4 (≈ 4.3 µM)	0.12 (≈ 0.129 µM)
CC[C@H]1OC(=O)[C@H](C)[C@@H](OC(=O)N(CC)CC)[C@H](C)[C@@H](O[C@@H]2O[C@H](C)C[C@H](N(C)C)[C@H]2O)[C@](C)(OC(=O)NC/C=C/c2ccc(-n3cccn3)cc2)C[C@@H](C)C(=O)[C@H](C)[C@H]2NC(=O)O[C@@]21C	0.12 (≈ 0.13 µM)	0.12 (≈ 0.13 µM)	1 (≈ 1.08 µM)	4 (≈ 4.32 µM)	0.5 (≈ 0.54 µM)
CC[C@H]1OC(=O)[C@H](C)[C@@H](OC(=O)N(CC)CC)[C@H](C)[C@@H](O[C@@H]2O[C@H](C)C[C@H](N(C)C)[C@H]2O)[C@](C)(OC(=O)NC/C=C/c2ccc(-c3cccnn3)cc2)C[C@@H](C)C(=O)[C@H](C)[C@H]2NC(=O)O[C@@]21C	0.12 (≈ 0.128 µM)	0.06 (≈ 0.064 µM)	0.5 (≈ 0.534 µM)	4 (≈ 4.27 µM)	0.25 (≈ 0.267 µM)

Source: ChEMBL document CHEMBL1138130, “Synthesis and antibacterial activity of 3-O-acyl-6-O-carbamoyl erythromycin A derivatives” (2006)
